Assay results published in patent US12551532B2, “Long-acting amylin receptor agonists and uses thereof” (Eli Lilly and Company, priority 2021, dated 2026).
Starred links: 1 amine or outer side, 2 acyl side, 3 side chain; linkers in the order of their positions; H or OH if unused. Positions of bridges follow the written chain, without caps; N, C: chain ends. Non-standard residues stand in square brackets, D forms with d. Residues, ends and D or L forms follow the SMILES beside them. Groups on a side chain read outwards from the residue. *: point of attachment. C20 diacid = O=C(O)CCCCCCCCCCCCCCCCCCC(=O)*; γGlu = O=C(O)[C@H](CCC(=O)[*:2])N[*:1]; αMeF = C[C@](N)(Cc1ccccc1)C(=O)O; NMeD = CN[C@@H](CC(=O)O)C(=O)O; NMeN = CN[C@@H](CC(N)=O)C(=O)O; Orn = NCCC[C@H](N)C(=O)O; CH2 = C([*:1])[*:2]

Assays:
[1] = Pharmacokinetics in male Sprague Dawley rats; format: in vivo; details: single SC 30 nmol/kg, mean; for Tmax / CL/F / half-life: rat, plasma; for Tmax / AUCINF/D / Cmax/D / CL/F: n = 3; for half-life: n = 3, read-out: T l/2 (converted)
Method: (§1) The pharmacokinetics of Compound II (SEQ ID NO:2), Compound IV (SEQ ID NO:4), Compound VI (SEQ ID NO:6), and Compound VIII (SEQ ID NO:8) are evaluated following a single subcutaneous administration of 30 nmol/kg to male Sprague Dawley rats. Blood samples are collected at 1, 3, 6, 12, 24, 48, 72, 96 hours post SC dose. The resulting individual plasma concentrations are used to calculate pharmacokinetic parameters. Peptide plasma (K3EDTA) concentrations are determined using a qualified LC/MS method that measured the intact mass of the peptides. Each peptide and an analog as an internal standard are extracted from plasma. A high resolution Thermo Q-Exactive is used for LC/MS detection.

human CT receptors = biological target: T1, human CT receptors (Homo sapiens, UniProt P30988); assay: hCTR cAMP functional activity (HTRF); format: cell-based; details: ±SE; UMUC3 cells overexpressing hCTR; relative EC50
T1 construct: expressed in transfected cells
T1 sequence (P30988 25-474): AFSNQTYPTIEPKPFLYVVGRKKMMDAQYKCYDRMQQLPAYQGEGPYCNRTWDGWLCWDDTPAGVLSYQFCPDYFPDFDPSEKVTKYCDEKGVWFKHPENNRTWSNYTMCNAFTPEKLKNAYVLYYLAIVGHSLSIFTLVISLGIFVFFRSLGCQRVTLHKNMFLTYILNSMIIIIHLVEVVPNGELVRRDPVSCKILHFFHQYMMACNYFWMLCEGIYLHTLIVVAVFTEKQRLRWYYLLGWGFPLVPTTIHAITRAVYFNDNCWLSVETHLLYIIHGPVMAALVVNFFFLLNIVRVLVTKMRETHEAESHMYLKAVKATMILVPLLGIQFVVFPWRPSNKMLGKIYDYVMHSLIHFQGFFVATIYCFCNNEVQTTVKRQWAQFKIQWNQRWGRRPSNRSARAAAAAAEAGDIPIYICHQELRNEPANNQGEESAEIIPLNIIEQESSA
Method: The AMY1 and CT receptors are GPCRs that are functionally coupled to Gas proteins. […] In vitro activity of peptides is measured by the amount of cAMP formed in human AMY1R and CTR overexpressed cells.
Human CT receptors are stably expressed in human urinary bladder cells (UM-UC-3, or UMUC3) under control of a pcDNA expression vector. […] After 20 days under selection, the mRNA levels from different clones are measured to confirm the expression of hCTR. To determine the function of over-expressed hCTR cells, the intracellular cAMP levels in response to salmon calcitonin are measured and compared to the expression of hCTR mRNA in each clone.
hAMY1R cells are cultured in MEM 1× (Corning) supplemented with 10% FBS, 1% antibiotic/antimycotic solution, 1 mM sodium pyruvate, 1×MEM NEAA, 1× GlutaMAX-I, 200 μg/mL hygromycin B, and 0.4 μg/mL puromycin. The hCTR cells are cultured in the same medium lacking the puromycin. Cultured cells are grown to 70% confluency and then incubated overnight with fresh medium.
Peptides diluted in DMSO are added (200 nL/well) in a 1:3 dilution series using ECHO acoustic liquid handler (Beckman). Cultured cells are detached with TrypLE Express (Gibco), resuspended in assay buffer, and 10 μL containing 1200 cells/well (hCTR) or 1500 cells/well (hAMY1R) are dispensed into each well. The plates are incubated at room temperature for 1 hour.
The amount of intracellular cAMP is quantitated using HTRF technology (Homogeneous Time Resolved Fluorescence; Cisbio) as per vendor instructions. Briefly, 10 μL cAMP-d2 conjugate and 10 μL anti-cAMP-cryptate conjugate in lysis buffer are incubated with the treated cells at room temperature for 60 min. […] The raw data are converted to cAMP amount (pmol/well) using a cAMP standard curve generated for each experiment.

[2] = Pharmacokinetics in male cynomolgus monkeys; format: in vivo; details: single SC 20 nmol/kg, mean; for Tmax / CL/F / half-life: male, cynomolgus monkey, plasma; for Tmax / AUCINF/D / Cmax/D / CL/F: n = 3; for half-life: n = 3, read-out: T½ (converted)
Method: as §1, with “20” for “30”, “cynomolgus monkeys.” for “Sprague Dawley rats.”, “120, 168, 240, 336, 408, 504” for “96”

[3] = biological target: T2, human calcitonin receptor (hCTR) (Homo sapiens, UniProt P30988); assay: hCTR competitive radioligand binding filter assay (125I-hCT); details: ± SE; membranes of hCTR overexpressing cells
T2 construct: expressed in transfected cells; host or cells: membranes of UM-UC-3 (UMUC3) cells stably expressing human CTa
T2 sequence (P30988 25-474): T1 sequence (P30988 25-474)
Method: The equilibrium dissociation constants (Kd) for the various receptor/radioligand interactions are determined from saturation binding analysis using the same reagents and buffers as described below for compound testing.
The receptor binding affinity (Ki) of rAMY, hCT, and hAMY agonist peptides on hCTR membranes is determined from a competitive radioligand binding filter assay.

[4] = test system: pre-existing antibodies (ADA) in normal human serum; assay: Pre-existing reactivity (ACE assay format); details: >50 donors; treatment-naive normal human serum
Method: This assay assesses the presence of pre-existing antibodies (ADA) against the tested molecules in treatment-naive normal human serum (NHS). Diluted NHS is incubated overnight on a Pierce Streptavidin plate coated with biotinylated tested molecules. On the following day, the captured binding proteins are acid eluted, hard-coated to a Mesoscale (MSD) plate, and detected with a combination of biotin-labeled molecule and ruthenium-labeled streptavidin. If anti-drug antibodies are present, they will bind the labeled drug and the resulting signal is referred to as Tier 1 signal (expressed as electrochemiluminescence). This signal is confirmed in Tier 2 by adding excess unlabeled tested molecule in the detection step, which results in the suppression of the Tier 1 signal. The presence of pre-existing anti-drug antibodies is expressed as magnitude of the 90th percentile of Tier 2 inhibition. The 90th percentile of Tier 2 inhibition, is a statistical tool to assess the magnitude of specificity of Tier 1 reactivity. This 90th percentile is used to rank molecules in terms of ADA risk.

Structure (SMILES)	Tmax [1]	AUCINF/D [1]	Cmax/D [1]	EC50 (human CT receptors)	Tmax [2]	AUCINF/D [2]	Cmax/D [2]	Ki [3]	Pre-existing Reactivity 90th percentile T2 inhibition [4]	CL/F [1]	half-life [1]	CL/F [2]	half-life [2]
CC(C)C[C@H](NC(=O)[C@H](CCCN)NC(=O)CNC(=O)[C@@H](NC(=O)[C@H](C)NC(=O)[C@@H]1CSCSC[C@H](NC(=O)CC[C@H](N)C(=O)O)C(=O)N[C@@H](CC(N)=O)C(=O)N[C@@H]([C@@H](C)O)C(=O)N[C@@H](C)C(=O)N[C@@H]([C@@H](C)O)C(=O)N1)[C@@H](C)O)C(=O)N[C@@H](C)C(=O)N[C@@H](CCC(=O)O)C(=O)N[C@@](C)(Cc1ccccc1)C(=O)N[C@@H](CC(C)C)C(=O)N[C@H](C(=O)N[C@@H](CCCNC(=N)N)C(=O)N[C@@H](CO)C(=O)N[C@@H](CO)C(=O)N[C@@H](CC(N)=O)C(=O)N(C)[C@@H](CC(N)=O)C(=O)N[C@@H](Cc1ccccc1)C(=O)NCC(=O)N1CCC[C@H]1C(=O)N[C@@H](CCCCNC(=O)CC[C@H](NC(=O)CC[C@H](NC(=O)CCCCCCCCCCCCCCCCCCC(=O)O)C(=O)O)C(=O)O)C(=O)N[C@@H](CC(C)C)C(=O)N1CCC[C@H]1C(=O)N1CCC[C@H]1C(=O)N[C@H](C(=O)N[C@@H](CCC(=O)O)C(=O)N[C@H](C(=O)NCC(=O)N[C@@H](CO)C(=O)N[C@@H](CC(N)=O)C(=O)N[C@H](C(=O)N[C@@H](Cc1ccc(O)cc1)C(N)=O)[C@@H](C)O)C(C)C)[C@@H](C)O)C(C)C [Compound II] (γGlu-CNTATCATG[Orn]LAE[αMeF]LVRSSN[NMeN]FGPK([γGlu-γGlu-C20 diacid])LPPTEVGSNTY-NH2; linker 1-6 via CH2)	24 h	473 ± 63.8 hr * kg * nmol/L/nmol	4.9 ± 0.9 kg * nmol/L/nmol	2.34 ± 0.272 nM	64 ± 13.9 h	1752 ± 313 hr * kg * nmol/L/nmol	6.7 ± 1.0 kg * nmol/L/nmol	202 ± 45 nM	48.8%				
CC(C)C[C@H](NC(=O)[C@H](CCCN)NC(=O)CNC(=O)[C@@H](NC(=O)[C@H](C)NC(=O)[C@@H]1CSCSC[C@H](NC(=O)CC[C@H](N)C(=O)O)C(=O)N[C@@H](CC(N)=O)C(=O)N[C@@H]([C@@H](C)O)C(=O)N[C@@H](C)C(=O)N[C@@H]([C@@H](C)O)C(=O)N1)[C@@H](C)O)C(=O)N[C@@H](C)C(=O)N[C@@H](CCC(=O)O)C(=O)N[C@@](C)(Cc1ccccc1)C(=O)N[C@@H](CC(C)C)C(=O)N[C@H](C(=O)N[C@@H](CCCNC(=N)N)C(=O)N[C@@H](CO)C(=O)N[C@@H](CO)C(=O)N[C@@H](CC(N)=O)C(=O)N(C)[C@@H](CC(=O)O)C(=O)N[C@@H](Cc1ccccc1)C(=O)NCC(=O)N1CCC[C@H]1C(=O)N[C@@H](CCCCNC(=O)CC[C@H](NC(=O)CC[C@H](NC(=O)CCCCCCCCCCCCCCCCCCC(=O)O)C(=O)O)C(=O)O)C(=O)N[C@@H](CC(C)C)C(=O)N1CCC[C@H]1C(=O)N1CCC[C@H]1C(=O)N[C@H](C(=O)N[C@@H](CCC(=O)O)C(=O)N[C@H](C(=O)NCC(=O)N[C@@H](CO)C(=O)N[C@@H](CC(N)=O)C(=O)N[C@H](C(=O)N[C@@H](Cc1ccc(O)cc1)C(N)=O)[C@@H](C)O)C(C)C)[C@@H](C)O)C(C)C [Compound IV, γE-CNTATCATG-Orn-LAE-αMeF-LVRSSN-NMeD-FGPKLPPTEVGSNTY-NH2] (γGlu-CNTATCATG[Orn]LAE[αMeF]LVRSSN[NMeD]FGPK([γGlu-γGlu-C20 diacid])LPPTEVGSNTY-NH2; linker 1-6 via CH2)	20 ± 6.9 h	551 ± 27.1 hr * kg * nmol/L/nmol	5.5 ± 2.1 kg * nmol/L/nmol	6.14 ± 0.764 nM	48 ± 24 h	1607 ± 104 hr * kg * nmol/L/nmol	6.2 ± 1.0 kg * nmol/L/nmol	665 ± 113 nM	33.2%	1.8 mL/h/kg	66.9 ± 27.6 h	0.62 mL/h/kg	177 ± 13.5 h
CC[C@H](C)[C@H](NC(=O)[C@@H]1CCCN1C(=O)CNC(=O)[C@H](Cc1ccccc1)NC(=O)[C@H](CC(=O)O)N(C)C(=O)[C@H](CC(N)=O)NC(=O)[C@H](CO)NC(=O)[C@H](CO)NC(=O)[C@H](CCCNC(=N)N)NC(=O)[C@@H](NC(=O)[C@H](CC(C)C)NC(=O)[C@](C)(Cc1ccccc1)NC(=O)[C@H](CCC(=O)O)NC(=O)[C@H](C)NC(=O)[C@H](CC(C)C)NC(=O)[C@H](CCCN)NC(=O)CNC(=O)[C@@H](NC(=O)[C@H](C)NC(=O)[C@@H]1CSCSC[C@H](NC(=O)[C@@H](N)CCCCNC(=O)CC[C@H](NC(=O)CC[C@H](NC(=O)CCCCCCCCCCCCCCCCCCC(=O)O)C(=O)O)C(=O)O)C(=O)N[C@@H](CCC(=O)O)C(=O)N[C@@H]([C@@H](C)O)C(=O)N[C@@H](C)C(=O)N[C@@H]([C@@H](C)O)C(=O)N1)[C@@H](C)O)C(C)C)C(=O)N[C@@H](CC(C)C)C(=O)N1CCC[C@H]1C(=O)N1CCC[C@H]1C(=O)N[C@H](C(=O)N[C@@H](CCC(=O)O)C(=O)N[C@H](C(=O)NCC(=O)N[C@@H](CO)C(=O)N[C@@H](CC(N)=O)C(=O)N[C@H](C(=O)N[C@@H](Cc1ccc(O)cc1)C(N)=O)[C@@H](C)O)C(C)C)[C@@H](C)O [Compound VI, KCETATCATG-Orn-LAE-αMeF-LVRSSN-NMeD-FGPILPPTEVGSNTY-NH2] (H-K([γGlu-γGlu-C20 diacid])CETATCATG[Orn]LAE[αMeF]LVRSSN[NMeD]FGPILPPTEVGSNTY-NH2; linker 2-7 via CH2)	24 h	506 ± 26.6 hr * kg * nmol/L/nmol	5.4 ± 0.5 kg * nmol/L/nmol	13.2 ± 2.23 nM	40 ± 13.9 h	794 ± 27 hr * kg * nmol/L/nmol	4.9 ± 0.7 kg * nmol/L/nmol	235 ± 45 nM	43.9%	2 mL/h/kg	54 ± 8.4 h	1.26 mL/h/kg	85 ± 5.8 h
